{"source": "patent US9877980B2", "about": "“Method and composition for treatment or prevention of type 2 diabetes and hyperlipidemia” (Chun-Ching Shih, priority 2016, dated 2018)", "format_in_all_cases": "in vivo", "settings_in_all_cases": "HFD mice, 4 weeks, vs HF group", "key": {"[1]": {"system": "PPARα", "test": "Semi-quantitative RT-PCR of liver mRNA: PPARα", "description": "(§1) The following experiment was performed and approved by the guidelines of the Institutional Animal Care and Use Committee of Central Taiwan University of Science and Technology. The 4-week old male C57BL/6J mice (total amount n=63) were purchased from the National Laboratory Animal Breeding and Research Center (Taipei, Taiwan). After acclimatization for one week, all of the mice were divided randomly into the control (CON) group and the high-fat diet (HFD) group. […] After HFD exposure for 8 weeks, the HFD group was further randomly subdivided into 6 groups (n=9 per group) to receive different treatments by oral gavage once daily for four weeks and on HFD. […] The HF+B1, HF+B2, and […] are collectively termed BB-treated HFD groups in the following examples. The CON mice were administered vehicle. After dosing for 4 weeks, the mice were given no food at night and sacrificed after 12 h of fasting on the next day. All of the individual tissues were collected and weighed, and portions were instantly frozen using liquid nitrogen and kept at −80° C. for subsequent target gene analysis. Blood samples (0.8 mL) were collected for analysis of blood parameters.\n(§2) Total RNA from liver tissue of mice was isolated with a Trizol Reagent (Molecular Research Center, Inc., Cincinnati, Ohio, USA) according to the manufacturer's instructions. The integrity of the extracted total RNA was examined by 2% agarose gel electrophoresis, and the RNA concentration was determined by the ultraviolet (UV) light absorbency at 260 nm and 280 nm (Spectrophotometer U-2800A, Hitachi). The quality of the RNA was confirmed by ethidium bromide staining of 18S and 28S ribosomal RNA after electrophoresis on 2% agarose gel containing 6% formaldehyde.\n(§3) Levels of mRNA of genes of interest were quantified by semi-quantitative reverse transcription polymerase chain reaction (RT-PCR). […] PCR products were analyzed by 2% agarose gels and stained with ethidium bromide."}, "[2]": {"system": "Akt", "test": "Western blotting of phospho-Akt/total Akt in skeletal muscle and liver", "description": "The following experiment was performed and approved by the guidelines of the Institutional Animal Care and Use Committee of Central Taiwan University of Science and Technology. The 4-week old male C57BL/6J mice (total amount n=63) were purchased from the National Laboratory Animal Breeding and Research Center (Taipei, Taiwan). After acclimatization for one week, all of the mice were divided randomly into the control (CON) group and the high-fat diet (HFD) group. For the following 12 weeks, the CON group (n=9) was kept on a low-fat diet (Diet 12450B, Research Diets, Inc., New Brunswick, N.J., USA), while the HFD group (n=54) was exposed to a high-fat diet (Diet 12451, Research Diets, New Brunswick, N.J., USA). The low-fat diet was composed of protein 20%, carbohydrate 70% and fat 10%, whereas the high-fat diet was composed of protein 20%, carbohydrate 35%, and fat 45% (of total energy, % kcal). After HFD exposure for 8 weeks, the HFD group was further randomly subdivided into 6 groups (n=9 per group) to receive different treatments by oral gavage once daily for four weeks and on HFD. […] The HF+B1, HF+B2, and […] are collectively termed BB-treated HFD groups in the following examples. The CON mice were administered vehicle. After dosing for 4 weeks, the mice were given no food at night and sacrificed after 12 h of fasting on the next day. All of the individual tissues were collected and weighed, and portions were instantly frozen using liquid nitrogen and kept at −80° C. for subsequent target gene analysis. Blood samples (0.8 mL) were collected for analysis of blood parameters.\nProtein extractions and immunoblots for the determination of phospho-AMPK (Thr^172) and phospho-Akt (Ser^473) proteins in skeletal muscle and liver tissue of mice (n=9) were carried out. About 0.1 g of liver tissue and skeletal muscle was used for the homogenate samples. Samples were powdered under liquid nitrogen and homogenized for 20 seconds in 500 μL buffer containing 20 mM Tris-HCL1 (pH 7.4 at 4° C.), 2% SDS, 5 mM EDTA, 5 mM EGTA, 1 mM DTT, 100 mM NaF, 2 mM sodium vanadate, 0.5 mM phenylmethylsulfonyl fluoride, 10 μg/mL leupeptin, and […] pepstatin. The protein concentration in supernatant was determined with a BCA protein assay kit (Thermo Scientific, Rockford, Ill., USA). 20 μg of proteins were separated by electrophoresis on a polyacrylamide gel 12% (SDS-PAGE) and transferred to a nitrocellulose membrane. The membranes were blocked with 5% slim milk in Tris-buffered saline (TBS)(Amersham BioSciences, Uppsala, Sweden) containing 0.05% Tween-20 (Bio Rad, CA, USA) and incubated overnight at 4° C. with anti-phospho-AMPK (Abcam Inc., Cambridge, Mass., USA) and anti-phospho-Akt (Cell signaling Technology, Inc., Danvers, Mass., USA) rabbit polyclonal antibodies at 1:200 dilution. Subsequently, the membranes were washed three times with TBS containing 0.05% Tween-20 and incubated with secondary antibody anti-rabbit (1:1000) (Jackson ImmunoResearch Laboratories, Inc., PA, USA) for 1 hour. Immunoreactive bands were detected with ECL reagent kit (GE Healthcare BioSciences, Buckinghamshire, UK). The intensity of blotting was analyzed using Alpha Easy FC software (Alpha Innotech Corporation, Randburg, South Africa). Structural proteins GAPDH (Santa Cruz Biotechnology, CA, USA) in the samples were used as the loading control."}, "[3]": {"system": "DGAT2", "test": "Semi-quantitative RT-PCR of liver mRNA: DGAT2", "description": "as §1, §2, §3"}, "[4]": {"system": "G6Pase", "test": "Semi-quantitative RT-PCR of liver mRNA: G6Pase", "description": "as §1, §2, §3"}}}
{"molecule": "OCC1O[C@@H](O[C@@H]2Cc3c(O)cc(O)cc3O[C@@H]2c2ccc(O)c(O)c2)C(O)C(O)[C@@H]1O", "note": "(single isomer, unassigned; (-)) [compound of formula I, (−)-epicatechin-3-O-β-D-allopyranoside]", "values": [{"measurement": "liver PPARα mRNA level", "setting": "[1]; 10 mg/kg/day oral gavage", "result": "enhanced"}, {"measurement": "liver PPARα mRNA level", "setting": "[1]; 20 mg/kg/day oral gavage", "result": "enhanced"}, {"measurement": "liver PPARα mRNA level", "setting": "[1]; 40 mg/kg/day oral gavage", "result": "enhanced"}, {"measurement": "expression level of phospho-Akt/total Akt", "setting": "[2]; liver, 10 mg/kg/day oral gavage", "result": "increased"}, {"measurement": "expression level of phospho-Akt/total Akt", "setting": "[2]; liver, 20 mg/kg/day oral gavage", "result": "increased"}, {"measurement": "expression level of phospho-Akt/total Akt", "setting": "[2]; liver, 40 mg/kg/day oral gavage", "result": "increased"}, {"measurement": "expression level of phospho-Akt/total Akt", "setting": "[2]; skeletal muscle, 10 mg/kg/day oral gavage", "result": "increased"}, {"measurement": "expression level of phospho-Akt/total Akt", "setting": "[2]; skeletal muscle, 20 mg/kg/day oral gavage", "result": "increased"}, {"measurement": "expression level of phospho-Akt/total Akt", "setting": "[2]; skeletal muscle, 40 mg/kg/day oral gavage", "result": "increased"}, {"measurement": "liver mRNA level of DGAT2", "setting": "[3]; 10 mg/kg/day oral gavage", "result": "significantly reduced"}, {"measurement": "liver mRNA level of DGAT2", "setting": "[3]; 20 mg/kg/day oral gavage", "result": "significantly reduced"}, {"measurement": "liver mRNA level of DGAT2", "setting": "[3]; 40 mg/kg/day oral gavage", "result": "significantly reduced"}, {"measurement": "liver mRNA level of G6Pase", "setting": "[4]; 10 mg/kg/day oral gavage", "result": "significantly reduced"}, {"measurement": "liver mRNA level of G6Pase", "setting": "[4]; 20 mg/kg/day oral gavage", "result": "significantly reduced"}, {"measurement": "liver mRNA level of G6Pase", "setting": "[4]; 40 mg/kg/day oral gavage", "result": "significantly reduced"}]}
